The results in this text go back to patent publication US6410558B1, “Fungicides for the control of take-all disease of plants” (Monsanto Technology LLC, priority 1991, dated 2002).

Where only a bound is given, the exact number is not on record here.

The test concerns Gaeumannomyces graminis var. tritici (Ggt). Nature of the test: In vitro Assay: mycelial growth of Ggt on minimal media agar plates containing test compound. The format is cell-based. To be noted: dark, 19-20° C., 4 to 5 days, diameter of mycelial growth; for inhibition at 0.1 ppm / inhibition at 1 ppm / inhibition at 10 ppm: Gaeumannomyces graminis; for inhibition at 0.1 ppm / In vitro (ppm) 0.1, Percent Inhibition: 0.1 ppm in minimal media agar; for inhibition at 0.1 ppm: read-out: In vitro (ppm) 0.1, Percent Inhibition; for inhibition at 1 ppm / In vitro (ppm) 1, Percent Inhibition: 1 ppm in minimal media agar; for inhibition at 1 ppm: read-out: In vitro (ppm) 1, Percent Inhibition; for inhibition at 10 ppm / In vitro (ppm) 10, Percent Inhibition: 10 ppm in minimal media agar; for inhibition at 10 ppm: read-out: In vitro (ppm) 10, Percent Inhibition. The method, then:
The test compounds (0.25 mL of an appropriate stock solution in acetone) are incorporated into 25 mL minimal media agar [(prepared by autoclaving a solution of 17.5 g Czapek Dox broth (Difco), 7.5 g purified agar or Bacto-agar (Difco), and 500 mL distilled/deionized water, and then adding 50 μL of 1 mg/mL thiamine hydrochloride and 50 μL of 1 mg/mL biotin in 5% ethanol] and plates are prepared.
Each plate is inoculated by placing in a triangular shape three 4-mm plugs of Gaeumannomyces graminis var. tritici (Ggt) grown on the minimal media agar described above. The plates are incubated in the dark at 19-20° C. for 4 to 5 days. The growth of the fungus is measured as the diameter of the mycelial growth. The result is expressed as Percent Inhibition, calculated as [1-[(mm growth on treated plate −4)/(mm growth on control plate −4)]]×100.

In general, inhibition refers to how much of the control response was suppressed. `CCCSC(=O)c1c(Cl)cccc1[Si](C)(C)C` [Example 79, 2-Chloro-6-(trimethylsilyl)-benzenecarbothioic acid, S-propyl ester]: the inhibition at 0.1 ppm turned out to be 12%, the inhibition at 1 ppm was 12% and the inhibition at 10 ppm was 65%.
Take `CCC(C)SC(=O)c1c(Cl)cccc1[Si](C)(C)C` (stereo not drawn) [Example 80, 2-Chloro-6-(trimethylsilyl)-benzenecarbothioic acid, S-(1-methylpropyl) ester]: the inhibition at 0.1 ppm is < 0%, the inhibition at 1 ppm was 4% and the inhibition at 10 ppm worked out at 46%.
Taken in the same sequence, the figures for `CC(C)CSC(=O)c1c(Cl)cccc1[Si](C)(C)C` [Example 81, 2-Chloro-6-(trimethylsilyl)-benzenecarbothioic acid, S-(2-methylpropyl) ester] were < 0%, < 0% and 46%.
`CCN(CC)C(=O)c1c([Si](C)(C)C)ccc(Cl)c1Cl` [Example 84, N,N-Diethyl-2,3-dichloro-6-(trimethylsilyl)benzamide]: the inhibition at 0.1 ppm was < 0%, the inhibition at 1 ppm is 66% and the inhibition at 10 ppm is 100%.
Taken in the same sequence, the figures for `CCc1ccc([Si](C)(C)C)c(C(=O)N(CC)CC)c1Cl` [Example 85, N,N-Diethyl-2-chloro-3-ethyl-6-(trimethylsilyl)benzamide] were 7%, 7% and 59%.
In the same order, the values of `CCN(CC)C(=O)c1c([Si](C)(C)C)ccc([Si](C)(C)C)c1Cl` [Example 86, N,N-Diethyl-2-chloro-3,6-bis(trimethylsilyl)benzamide] are < 0%, 24% and 72%.
Consider `CCN(CC)C(=O)c1c([Si](C)(C)C)ccc(F)c1Cl` [Example 88, N,N-Diethyl-2-chloro-3-fluoro-6-(trimethylsilyl)benzamide], for which the inhibition at 0.1 ppm is < 0%, the inhibition at 1 ppm was < 0% and the inhibition at 10 ppm is 73%.
As to `CCNC(=O)c1c(F)cccc1SC(C)(C)C` [Example 90], the “In vitro (ppm) 0.1, Percent Inhibition” value stood at 6%; the “In vitro (ppm) 1, Percent Inhibition” value is reported as 34%; the “In vitro (ppm) 10, Percent Inhibition” value is given as 89%.
For `CCNC(=O)c1c(F)cccc1CC(C)(C)C` [Example 93, 2-(2,2-Dimethylpropyl)-N-ethyl-6-fluorobenzamide], the inhibition at 0.1 ppm was < 0%, the inhibition at 1 ppm is < 0% and the inhibition at 10 ppm is 26%.
For the compound `CCNC(=O)c1c(F)cccc1-c1ccccc1C` [Example 94, N-Ethyl-2-fluoro-6-(2-methylphenyl)benzamide], the inhibition at 0.1 ppm is 9%, the inhibition at 1 ppm is 63% and the inhibition at 10 ppm worked out at 86%.
Taken in the same sequence, the figures for `CCCCCCC(C)N(CC)C(=O)c1c(Cl)cccc1[Si](C)(C)C` (stereo not drawn) [Example 96, 2-Chloro-N-ethyl-N-(1-methylheptyl)-6-(trimethylsilyl)benzamide] were 7%, 15% and 48%.
In the case of `CCN(CC)C(=O)c1c(C(F)F)cccc1[Si](C)(C)C` [Example 97, 2-(Difluoromethyl)-N,N-diethyl-6-(trimethylsilyl)benzamide], the inhibition at 0.1 ppm was 7%, the inhibition at 1 ppm amounted to 70% and the inhibition at 10 ppm is 100%.
In the same order, the values of `CN(Cc1ccc(C(C)(C)C)cc1)C(=O)c1c(Cl)cccc1[Si](C)(C)C` [Example 101, 2-Chloro-N-[[4-(1,1-dimethylethyl)phenyl]methyl]-N-methyl-6-(trimethylsilyl)-benzamide] are 10%, 21% and 62%.
On to `C[Si](C)(C)c1cccc(Cl)c1C(=O)NCc1ccc(C(F)(F)F)cc1` [Example 102, 2-Chloro-N-[[4-(trifluoromethyl)phenyl]-methyl]-6-(trimethylsilyl)-benzamide], for which the inhibition at 0.1 ppm is 28%, the inhibition at 1 ppm was found to be 52% and the inhibition at 10 ppm was found to be 28%.
On to `CCN(CC=CC#CC(C)(C)C)C(=O)c1c(Cl)cccc1[Si](C)(C)C` [Example 104, 2-Chloro-N-(6,6-dimethyl-2-hepten-4-ynyl)-N-ethyl-6-(trimethylsilyl)benzamide], for which the inhibition at 0.1 ppm is < 0%, the inhibition at 1 ppm was 26% and the inhibition at 10 ppm turned out to be 71%.
Taken in the same sequence, the figures for `CN(CC=Cc1ccccc1)C(=O)c1c(Cl)cccc1[Si](C)(C)C` [Example 105, 2-Chloro-N-methyl-N-(3-phenyl-2-propenyl)-6-(trimethylsilyl)benzamide] were 3%, 37% and 84%.
In the same order, the values of `C#CC(C)(C)NC(=O)c1c(Cl)cccc1[Si](C)(C)C` [Example 107, 2-Chloro-N-(1,1-dimethyl-2-propynyl)-6-(trimethylsilyl)benzamide] are < 0%, < 0% and 24%.
Taken in the same sequence, the figures for `C#CCNC(=O)c1c(Cl)cccc1[Si](C)(C)C` [Example 108, 2-Chloro-N-(2-propynyl)-6-(trimethylsilyl)benzamide] were 90%, 86% and 97%.
`CCOC(=O)Nc1c(Cl)cccc1[Si](C)(C)C` [Example 109, [2-Chloro-6-(trimethylsilyl)phenyl]carbamic acid, ethyl ester]: the inhibition at 0.1 ppm worked out at 10%, the inhibition at 1 ppm stood at 10% and the inhibition at 10 ppm came to 83%.
For the compound `CCNC(=O)Nc1c(Cl)cccc1[Si](C)(C)C` [Example 110, N-[2-Chloro-6-(trimethylsilyl)phenyl]-N′-ethylurea], the inhibition at 0.1 ppm was 7%, the inhibition at 1 ppm came out at 17% and the inhibition at 10 ppm was 45%.
In the same order, the values of `C/C=C\NC(=O)c1c(Cl)cccc1[Si](C)(C)C` [Example 112, (Z)-2-Chloro-N-1-propenyl-6-(trimethylsilyl)benzamide] are 81%, 96% and 100%.
In the same order, the values of `C/C=C/NC(=O)c1c(Cl)cccc1[Si](C)(C)C` [Example 113, (E)-2-Chloro-N-1-propenyl-6-(trimethylsilyl)benzamide] are < 0%, 26% and 96%.
With `CCNC(=O)c1c(Cl)ccc[c]1[Sn]([CH3])([CH3])[CH3]` [Example 115, 2-Chloro-N-ethyl-6-(trimethylstannyl)benzamide], the “In vitro (ppm) 0.1, Percent Inhibition” value was 97%; the “In vitro (ppm) 1, Percent Inhibition” value came to 97%; the “In vitro (ppm) 10, Percent Inhibition” value is 97%.
Consider `CCNC(=O)c1c(F)cccc1[Si](C)(C)C` [Example 117, N-Ethyl-2-fluoro-6-(trimethylsilyl)benzamide], for which the inhibition at 0.1 ppm stood at 36%, the inhibition at 1 ppm was 94% and the inhibition at 10 ppm turned out to be 97%.
